Laboratory results reported in ChEMBL document CHEMBL3860101, “Targeting the Nerve Growth Factor (NGF) Pathway in Drug Discovery. Potential Applications to New Therapies for Chronic Pain” (J Med Chem, 2017).
One block for each compound: values may come before it.

Tests used:
[1] = target: T1, High affinity nerve growth factor receptor (Homo sapiens, UniProt P04629); assay: Inhibition of TrkA (unknown origin) by cell based assay
Target sequence in this assay (P04629 whole entry): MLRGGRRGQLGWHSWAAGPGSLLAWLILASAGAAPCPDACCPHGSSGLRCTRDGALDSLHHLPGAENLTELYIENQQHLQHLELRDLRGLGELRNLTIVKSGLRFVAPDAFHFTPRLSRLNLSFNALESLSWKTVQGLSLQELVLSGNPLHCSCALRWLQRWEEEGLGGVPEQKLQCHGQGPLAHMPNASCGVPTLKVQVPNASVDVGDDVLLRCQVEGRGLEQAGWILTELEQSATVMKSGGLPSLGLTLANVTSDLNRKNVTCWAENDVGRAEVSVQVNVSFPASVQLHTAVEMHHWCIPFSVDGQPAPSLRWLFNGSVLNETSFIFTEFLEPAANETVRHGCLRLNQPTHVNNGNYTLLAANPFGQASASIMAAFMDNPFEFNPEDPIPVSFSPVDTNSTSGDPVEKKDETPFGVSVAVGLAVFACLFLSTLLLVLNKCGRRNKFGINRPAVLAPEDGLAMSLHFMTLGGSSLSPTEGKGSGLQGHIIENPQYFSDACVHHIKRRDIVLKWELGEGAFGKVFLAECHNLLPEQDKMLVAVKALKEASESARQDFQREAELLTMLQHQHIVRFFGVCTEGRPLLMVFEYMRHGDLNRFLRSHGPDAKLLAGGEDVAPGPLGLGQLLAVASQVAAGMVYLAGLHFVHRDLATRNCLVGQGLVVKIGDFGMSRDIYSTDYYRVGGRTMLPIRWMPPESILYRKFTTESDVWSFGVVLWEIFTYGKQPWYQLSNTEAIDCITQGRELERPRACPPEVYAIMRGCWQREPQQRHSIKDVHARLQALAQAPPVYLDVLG

Beta-nerve growth factor = Beta-nerve growth factor (Mus musculus, UniProt P01139); assay: Inhibition of mouse NGF binding to TrkA (unknown origin) by SPR method; design: species or system Homo sapiens
Chain of Beta-nerve growth factor (P01139 whole entry, looked up): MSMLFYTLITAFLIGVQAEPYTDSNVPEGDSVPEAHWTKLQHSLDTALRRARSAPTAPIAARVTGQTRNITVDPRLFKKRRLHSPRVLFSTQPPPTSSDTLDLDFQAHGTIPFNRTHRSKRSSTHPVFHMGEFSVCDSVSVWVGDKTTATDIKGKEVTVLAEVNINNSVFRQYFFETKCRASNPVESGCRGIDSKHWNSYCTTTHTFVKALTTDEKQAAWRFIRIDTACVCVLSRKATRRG

[2] = target: T2, Tumor necrosis factor receptor superfamily member 16 (Homo sapiens, UniProt P08138); assay: Inhibition of mouse NGF binding to p75 (unknown origin) by SPR method
T2 sequence (P08138 whole entry): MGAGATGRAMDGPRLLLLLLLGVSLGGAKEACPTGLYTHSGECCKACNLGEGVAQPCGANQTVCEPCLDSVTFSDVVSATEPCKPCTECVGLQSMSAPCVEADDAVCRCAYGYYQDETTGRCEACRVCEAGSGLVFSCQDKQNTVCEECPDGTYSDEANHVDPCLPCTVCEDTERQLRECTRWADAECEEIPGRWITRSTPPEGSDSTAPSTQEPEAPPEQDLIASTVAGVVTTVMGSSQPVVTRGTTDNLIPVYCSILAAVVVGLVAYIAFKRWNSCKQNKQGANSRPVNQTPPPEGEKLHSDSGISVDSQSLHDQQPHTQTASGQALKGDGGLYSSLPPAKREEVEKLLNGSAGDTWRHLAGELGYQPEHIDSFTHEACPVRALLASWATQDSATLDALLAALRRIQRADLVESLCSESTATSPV

[3] = target: T1, High affinity nerve growth factor receptor; assay: Inhibition of mouse NGF binding to TrkA (unknown origin) by SPR method relative to control
Target sequence in this assay (P04629 33-796 limits assumed): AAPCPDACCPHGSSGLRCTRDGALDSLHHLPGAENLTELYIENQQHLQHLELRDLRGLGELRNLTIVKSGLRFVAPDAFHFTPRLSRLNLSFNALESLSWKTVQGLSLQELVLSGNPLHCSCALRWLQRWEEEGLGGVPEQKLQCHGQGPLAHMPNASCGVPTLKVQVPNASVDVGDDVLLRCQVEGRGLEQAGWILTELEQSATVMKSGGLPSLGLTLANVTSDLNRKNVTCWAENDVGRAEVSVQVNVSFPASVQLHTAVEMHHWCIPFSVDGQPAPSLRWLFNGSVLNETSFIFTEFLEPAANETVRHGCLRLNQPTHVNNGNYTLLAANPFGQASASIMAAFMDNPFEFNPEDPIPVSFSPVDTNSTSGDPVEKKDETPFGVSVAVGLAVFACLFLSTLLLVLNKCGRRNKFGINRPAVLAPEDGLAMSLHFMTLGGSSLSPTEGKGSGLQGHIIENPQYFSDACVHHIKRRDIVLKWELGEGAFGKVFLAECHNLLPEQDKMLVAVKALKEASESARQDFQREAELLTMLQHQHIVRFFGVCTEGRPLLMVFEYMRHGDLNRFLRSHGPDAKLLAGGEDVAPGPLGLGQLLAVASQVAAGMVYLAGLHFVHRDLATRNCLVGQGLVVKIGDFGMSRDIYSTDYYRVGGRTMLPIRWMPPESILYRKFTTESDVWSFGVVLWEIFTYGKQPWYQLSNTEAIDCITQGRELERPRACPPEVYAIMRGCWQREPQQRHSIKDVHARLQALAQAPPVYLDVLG

[4] = target: T3, Tumor necrosis factor receptor superfamily member 16 (Homo sapiens) (UniProt P08138); assay: Inhibition of mouse NGF binding to p75 (unknown origin) by SPR method relative to control
T3 sequence (whole entry): T2 sequence (P08138 whole entry)

[5] = target: T4, BDNF/NT-3 growth factors receptor (Homo sapiens, UniProt Q16620); assay: Inhibition of N-terminal GST tagged human TrkB cytoplasmic domain (456 to 822 amino acids) pre-incubated for 15 mins before peptide substrate addition for 180 mins by fluorescence based assay
Target sequence in this assay (Q16620 whole entry, the tested form may be a part): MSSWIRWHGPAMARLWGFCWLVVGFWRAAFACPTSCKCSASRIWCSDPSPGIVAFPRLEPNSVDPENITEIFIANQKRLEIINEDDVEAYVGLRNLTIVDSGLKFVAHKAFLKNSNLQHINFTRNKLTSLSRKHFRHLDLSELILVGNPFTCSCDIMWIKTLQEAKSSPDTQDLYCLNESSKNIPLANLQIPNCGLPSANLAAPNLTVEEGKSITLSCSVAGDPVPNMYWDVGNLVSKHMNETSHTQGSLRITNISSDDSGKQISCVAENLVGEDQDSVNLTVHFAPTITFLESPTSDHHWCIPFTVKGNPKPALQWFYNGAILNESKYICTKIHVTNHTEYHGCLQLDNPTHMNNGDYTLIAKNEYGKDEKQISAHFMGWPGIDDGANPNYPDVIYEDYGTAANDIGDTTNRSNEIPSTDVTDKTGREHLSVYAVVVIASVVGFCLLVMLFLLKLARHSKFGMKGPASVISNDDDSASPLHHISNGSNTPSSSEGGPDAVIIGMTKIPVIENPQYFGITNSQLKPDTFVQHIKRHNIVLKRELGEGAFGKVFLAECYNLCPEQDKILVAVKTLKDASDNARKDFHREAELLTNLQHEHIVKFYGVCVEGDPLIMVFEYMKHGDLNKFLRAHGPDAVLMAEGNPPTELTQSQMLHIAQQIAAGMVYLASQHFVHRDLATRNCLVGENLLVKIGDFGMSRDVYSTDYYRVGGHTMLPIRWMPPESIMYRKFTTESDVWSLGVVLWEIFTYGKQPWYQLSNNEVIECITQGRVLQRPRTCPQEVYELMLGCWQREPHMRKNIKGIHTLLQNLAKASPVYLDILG

[6] = target: T1, High affinity nerve growth factor receptor; assay: Inhibition of N-terminal GST tagged human TrkA cytoplasmic domain (436 to 790 amino acids) pre-incubated for 15 mins before peptide substrate addition for 180 mins by fluorescence based assay
Target sequence in this assay (P04629 whole entry): as the sequence (P04629 whole entry) above

[7] = target: T4, BDNF/NT-3 growth factors receptor; assay: Inhibition of His6 tagged human recombinant TrkB (455 to end amino acids) expressed in Sf21 cells at 10 uM
Target sequence in this assay (Q16620 32-822 limits assumed): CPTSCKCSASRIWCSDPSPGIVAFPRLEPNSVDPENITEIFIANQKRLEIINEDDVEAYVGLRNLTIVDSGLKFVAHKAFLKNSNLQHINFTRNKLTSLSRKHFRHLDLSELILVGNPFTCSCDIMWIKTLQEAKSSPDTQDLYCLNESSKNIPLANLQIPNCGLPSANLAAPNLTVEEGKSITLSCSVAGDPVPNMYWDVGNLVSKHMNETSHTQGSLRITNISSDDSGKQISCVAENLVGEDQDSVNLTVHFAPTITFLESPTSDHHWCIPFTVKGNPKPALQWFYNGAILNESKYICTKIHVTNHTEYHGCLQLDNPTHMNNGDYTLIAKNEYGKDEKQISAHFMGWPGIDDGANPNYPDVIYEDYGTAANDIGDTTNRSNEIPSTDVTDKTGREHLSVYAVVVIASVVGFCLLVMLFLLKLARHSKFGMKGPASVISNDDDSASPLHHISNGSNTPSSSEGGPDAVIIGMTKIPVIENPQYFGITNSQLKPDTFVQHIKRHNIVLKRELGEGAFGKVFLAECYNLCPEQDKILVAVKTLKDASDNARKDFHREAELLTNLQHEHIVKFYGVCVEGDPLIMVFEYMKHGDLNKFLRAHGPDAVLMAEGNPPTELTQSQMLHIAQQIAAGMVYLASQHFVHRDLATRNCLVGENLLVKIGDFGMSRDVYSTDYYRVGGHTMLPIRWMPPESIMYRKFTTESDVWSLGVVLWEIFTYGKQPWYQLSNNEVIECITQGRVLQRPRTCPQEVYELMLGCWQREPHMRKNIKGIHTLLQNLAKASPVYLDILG

[8] = target: T1, High affinity nerve growth factor receptor; assay: Inhibition of His-tagged recombinant human TrkA using Alexa-Fluor tracer-236 incubated for 60 mins by TR-FRET based Lantha-screen Eu kinase binding assay
Target sequence in this assay (P04629 whole entry): as the sequence (P04629 whole entry) above

[9] = target: T1, High affinity nerve growth factor receptor; assay: Inhibition of NGF-stimulated TrkA phosphorylation in human U2OS cells by beta-galactosidase reporter gene based PathHunter profiling assay; type: cell-based
Target sequence in this assay (P04629 whole entry): as above

[10] = target: NT-3 growth factor receptor (Homo sapiens, UniProt Q16288); assay: Inhibition of NT3-stimulated TrkC phosphorylation in human U2OS cells by beta-galactosidase reporter gene based PathHunter profiling assay; type: cell-based
[11] = target: T4, BDNF/NT-3 growth factors receptor; assay: Inhibition of BDNF-stimulated TrkB phosphorylation in human U2OS cells by beta-galactosidase reporter gene based PathHunter profiling assay; type: cell-based
Target sequence in this assay (Q16620 whole entry, the tested form may be a part): as the sequence (Q16620 whole entry, the tested form may be a part) above

Rattus norvegicus [12] = assay: Inhibition of mechanical allodynia in it dosed rat model of L5/L6 nerve ligation injury; type: functional
[13] = target: T5, High affinity nerve growth factor receptor (Rattus norvegicus, UniProt P35739); assay: Inhibition of NGF-induced TrkA auto-phosphorylation in rat PC12 cells incubated for 15 mins by chemiluminescence based method; type: cell-based, PC-12
T5 sequence (P35739 whole entry): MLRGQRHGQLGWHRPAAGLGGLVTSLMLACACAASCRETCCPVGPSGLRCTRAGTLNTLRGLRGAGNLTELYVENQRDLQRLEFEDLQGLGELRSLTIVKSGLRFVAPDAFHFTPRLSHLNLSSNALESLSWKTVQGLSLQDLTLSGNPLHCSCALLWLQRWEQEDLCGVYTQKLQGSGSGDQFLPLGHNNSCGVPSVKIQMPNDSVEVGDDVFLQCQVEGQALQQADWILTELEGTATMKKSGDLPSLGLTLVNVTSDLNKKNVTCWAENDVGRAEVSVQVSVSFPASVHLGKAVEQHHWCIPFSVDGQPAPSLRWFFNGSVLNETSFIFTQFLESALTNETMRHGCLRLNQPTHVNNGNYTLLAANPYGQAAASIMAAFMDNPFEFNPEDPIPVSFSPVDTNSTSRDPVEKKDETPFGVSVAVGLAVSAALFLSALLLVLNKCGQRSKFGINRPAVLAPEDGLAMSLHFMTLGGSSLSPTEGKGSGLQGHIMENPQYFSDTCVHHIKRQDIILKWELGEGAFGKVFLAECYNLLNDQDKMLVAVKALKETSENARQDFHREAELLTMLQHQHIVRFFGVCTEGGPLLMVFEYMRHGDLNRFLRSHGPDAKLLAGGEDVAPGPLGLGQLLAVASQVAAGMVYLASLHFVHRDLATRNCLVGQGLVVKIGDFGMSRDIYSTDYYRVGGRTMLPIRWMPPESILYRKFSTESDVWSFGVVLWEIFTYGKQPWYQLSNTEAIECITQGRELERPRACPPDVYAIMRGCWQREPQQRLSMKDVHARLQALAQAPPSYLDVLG

Rattus norvegicus [14] = assay: Inhibition of thermal sensitization-induced tactile allodynia in it dosed rat model of L5/L6 nerve ligation injury; type: functional
Rattus norvegicus [15] = assay: Inhibition of mechanical allodynia ip dosed rat model of L5/L6 nerve ligation injury; type: functional
[16] = target: T5, High affinity nerve growth factor receptor; assay: Inhibition of binding of [125I]-NGF to TrkA in rat PC12 cells incubated for 2 hrs by gamma counting method; type: cell-based, PC-12
P-gp = assay: Binding affinity to P-gp (unknown origin) assessed as efflux ratio by cell based assay; type: ADME; settings: human, not told

Structure (SMILES): CC(=O)NCc1ncc(NC(=O)c2ccc(C(F)(F)F)c(-c3ccn(C)n3)c2)c(-c2ccccc2)n1
IC50 [1]: 0.004 µM

Structure (SMILES): COc1ccc(COc2ccc(Cn3c(N)nc4cc(-c5cnn(C)c5)ccc43)cc2OC)cc1
IC50 [5]: 0.0003 µM
IC50 [6]: 0.0003 µM

Structure (SMILES): Cn1c2c(N)cc(N)cc2c(=O)n2nc(C(=O)O)c([N+](=O)[O-])c12
Imax [4]: 70%

Structure (SMILES): Cc1c(-c2cnn(C)c2)nn(-c2ccccc2)c1NC(=O)Nc1sc(C(F)(F)F)nc1-c1ccccc1
inhibition [7]: 97%
IC50 [8]: < 0.1 µM

Structure (SMILES): Cc1c(-c2cnn(C)c2)nn(-c2ccccc2)c1NC(=O)Nc1cc(C(F)(F)F)nn1-c1ccccc1
IC50 [8]: < 0.1 µM

Structure (SMILES): COc1ccc(C(=O)c2cn(C(C)C)c3ncnc(N)c23)cc1NC(=O)Nc1ccc(Cl)cc1Cl [CE-245677]
efflux ratio (P-gp): 1

Now from value to compound, other results behind:

IC50 (Beta-nerve growth factor): 33 µM
Imax [3]: 100%
Structure (SMILES): Cc1cc2nc3c(=O)[nH]c(=O)nc-3n(C)c2cc1C=O
IC50 [2]: 244 µM
Imax [4]: 37%

IC50 [9]: 0.05 µM
IC50 [10]: > 10 µM
IC50 [11]: > 10 µM
Structure (SMILES): O=C(O)c1ccc(Nc2cc(N3CCN(C4CCCCC4)CC3)c3noc4c3c2C(=O)c2ccccc2-4)cc1

IC50 (Beta-nerve growth factor): 149 µM
EC50 [13]: 22 µM
Imax [3]: 44%
IC50 [16]: 5.88 µM
Structure (SMILES): O=C1c2cccc3cc([N+](=O)[O-])cc(c23)C(=O)N1NCCO
ED50 (Rattus norvegicus [12]): 34.6 µg
IC50 [2]: > 300 µM
Imax [4]: 6.2%
ED50 (Rattus norvegicus [14]): 50 µg
ED50 (Rattus norvegicus [15]): 38 mg/kg

inhibition [7]: 91%
IC50 [8]: < 0.1 µM
Structure (SMILES): COCc1ccc2cccc(NC(=O)Nc3c(C)c(-c4cnn(C)c4)nn3-c3ccccc3)c2c1

IC50 [8]: < 0.1 µM
Structure (SMILES): COCCCc1cc(Cl)c(Cl)cc1NC(=O)Nc1c(C)c(-c2cnn(C)c2)nn1-c1ccccc1

IC50 (Beta-nerve growth factor): 47 µM
Imax [3]: 100%
Structure (SMILES): Cn1c2ccc(NC(=O)c3ccccc3)cc2c(=O)n2nc(C(=O)O)cc12
IC50 [2]: 110 µM
Imax [4]: 65%
